Test results taken from ChEMBL document CHEMBL3885861, “Open TG-GATES”.

Organism: Rattus norvegicus
Assay: Open TG-GATES - Regimen: Daily Repeat
Format: toxicity, organism-based, Sprague-Dawley
Parameters: regimen Daily Repeat, gender Male, age 6 weeks
Settings: in vivo, po, 20 mg/kg, route gavage, dose level Middle; for APTT / Bas / Eos / Fbg / Hb / Ht / Lym / MCH / MCHC / MCV / Mono / Neu / PT / Plat / RBC / Ret / WBC: tissue Blood; for LIVER: tissue Liver; for A/G / ALP / ALT / AST / BUN / CRE / Ca / Cl / DBIL / GLC / IP / K / LDH / Na / PL / RALB / TBIL / TC / TG / TP / gamma-GTP: tissue Plasma

O=[N+]([O-])c1ccc(O)c([N+](=O)[O-])c1 [2,4-DINITROPHENOL]
TERMINAL_BW (72 h, time 3 day): 243.1 g
APTT (72 h, time 3 day): 15.4 s
Bas (72 h, time 3 day): 0%
Eos (72 h, time 3 day): 1.2%
Fbg (72 h, time 3 day): 283.4 mg/dL
Hb (72 h, time 3 day): 13.6 g/dL
Ht (72 h, time 3 day): 40.4%
Lym (72 h, time 3 day): 77%
MCH (72 h, time 3 day): 22.4 pg
MCHC (72 h, time 3 day): 33.7%
MCV (72 h, time 3 day): 66.4 fL
Mono (72 h, time 3 day): 5%
Neu (72 h, time 3 day): 17%
PT (72 h, time 3 day): 11.4 s
Plat (72 h, time 3 day): 131.6 x10_4/uL
RBC (72 h, time 3 day): 609.2 x10_4/ul
Ret (72 h, time 3 day): 7.3%
WBC (72 h, time 3 day): 124.2 x10_2/uL
LIVER (72 h, time 3 day): 12.1 g
A/G (72 h, time 3 day): 2.4
ALP (72 h, time 3 day): 1368.6 IU/L
ALT (72 h, time 3 day): 36.6 IU/L
AST (72 h, time 3 day): 61.6 IU/L
BUN (72 h, time 3 day): 15.2 mg/dL
CRE (72 h, time 3 day): 0.4 mg/dL
Ca (72 h, time 3 day): 11.4 mg/dL
Cl (72 h, time 3 day): 104.2 meq/L
DBIL (72 h, time 3 day): 0.01 mg/dL
GLC (72 h, time 3 day): 182.6 mg/dL
IP (72 h, time 3 day): 7.3 mg/dL
K (72 h, time 3 day): 4.8 meq/L
LDH (72 h, time 3 day): 128.4 IU/L
Na (72 h, time 3 day): 138.2 meq/L
PL (72 h, time 3 day): 165.4 mg/dL
RALB (72 h, time 3 day): 3.9 g/dL
TBIL (72 h, time 3 day): 0.022 mg/dL
TC (72 h, time 3 day): 93 mg/dL
TG (72 h, time 3 day): 134.6 mg/dL
TP (72 h, time 3 day): 5.6 g/dL
gamma-GTP (72 h, time 3 day): 0.2 IU/L
TERMINAL_BW ([…], time 7 day): 277.1 g
TERMINAL_BW ([…], time 14 day): 351 g
TERMINAL_BW ([…], time 28 day): 428.8 g
APTT ([…], time 7 day): 16.2 s
Bas ([…], time 7 day): 0%
Eos ([…], time 7 day): 0.8%
Fbg ([…], time 7 day): 259.6 mg/dL
Hb ([…], time 7 day): 13.7 g/dL
Ht ([…], time 7 day): 40.8%
Lym ([…], time 7 day): 71.4%
MCH ([…], time 7 day): 21.3 pg
MCHC ([…], time 7 day): 33.6%
MCV ([…], time 7 day): 63.3 fL
Mono ([…], time 7 day): 9%
Neu ([…], time 7 day): 19%
PT ([…], time 7 day): 11.8 s
Plat ([…], time 7 day): 128 x10_4/uL
RBC ([…], time 7 day): 644.2 x10_4/ul
Ret ([…], time 7 day): 5.5%
WBC ([…], time 7 day): 102 x10_2/uL
APTT ([…], time 14 day): 16.3 s
Bas ([…], time 14 day): 0%
Eos ([…], time 14 day): 0.6%
Fbg ([…], time 14 day): 267 mg/dL
Hb ([…], time 14 day): 13.9 g/dL
Ht ([…], time 14 day): 41.3%
Lym ([…], time 14 day): 77.6%
MCH ([…], time 14 day): 21 pg
MCHC ([…], time 14 day): 33.8%
MCV ([…], time 14 day): 62.2 fL
Mono ([…], time 14 day): 6%
Neu ([…], time 14 day): 15.8%
PT ([…], time 14 day): 11.8 s
Plat ([…], time 14 day): 128 x10_4/uL
RBC ([…], time 14 day): 663.8 x10_4/ul
Ret ([…], time 14 day): 4.4%
WBC ([…], time 14 day): 125.8 x10_2/uL
APTT ([…], time 28 day): 17.1 s
Bas ([…], time 28 day): 0%
Eos ([…], time 28 day): 1%
Fbg ([…], time 28 day): 281.8 mg/dL
Hb ([…], time 28 day): 14.9 g/dL
Ht ([…], time 28 day): 44%
Lym ([…], time 28 day): 82.4%
MCH ([…], time 28 day): 20 pg
MCHC ([…], time 28 day): 33.8%
MCV ([…], time 28 day): 59.1 fL
Mono ([…], time 28 day): 5%
Neu ([…], time 28 day): 11.6%
PT ([…], time 28 day): 12 s
Plat ([…], time 28 day): 122 x10_4/uL
RBC ([…], time 28 day): 744.2 x10_4/ul
Ret ([…], time 28 day): 2.6%
WBC ([…], time 28 day): 118.2 x10_2/uL
LIVER ([…], time 7 day): 13.6 g
LIVER ([…], time 14 day): 17.5 g
LIVER ([…], time 28 day): 19.1 g
A/G ([…], time 7 day): 2.3
ALP ([…], time 7 day): 1592.8 IU/L
ALT ([…], time 7 day): 33.4 IU/L
AST ([…], time 7 day): 63 IU/L
BUN ([…], time 7 day): 18.4 mg/dL
CRE ([…], time 7 day): 0.4 mg/dL
Ca ([…], time 7 day): 11.4 mg/dL
Cl ([…], time 7 day): 105.4 meq/L
DBIL ([…], time 7 day): 0.012 mg/dL
GLC ([…], time 7 day): 182 mg/dL
IP ([…], time 7 day): 7.2 mg/dL
K ([…], time 7 day): 4.8 meq/L
LDH ([…], time 7 day): 111.6 IU/L
Na ([…], time 7 day): 139.4 meq/L
PL ([…], time 7 day): 149.6 mg/dL
RALB ([…], time 7 day): 3.9 g/dL
TBIL ([…], time 7 day): 0.02 mg/dL
TC ([…], time 7 day): 77.4 mg/dL
TG ([…], time 7 day): 148.2 mg/dL
TP ([…], time 7 day): 5.6 g/dL
gamma-GTP ([…], time 7 day): 0.4 IU/L
A/G ([…], time 14 day): 2.1
ALP ([…], time 14 day): 983.2 IU/L
ALT ([…], time 14 day): 33.4 IU/L
AST ([…], time 14 day): 64.2 IU/L
BUN ([…], time 14 day): 19 mg/dL
CRE ([…], time 14 day): 0.3 mg/dL
Ca ([…], time 14 day): 11.8 mg/dL
Cl ([…], time 14 day): 104.4 meq/L
DBIL ([…], time 14 day): 0.014 mg/dL
GLC ([…], time 14 day): 180.4 mg/dL
IP ([…], time 14 day): 6.9 mg/dL
K ([…], time 14 day): 4.5 meq/L
LDH ([…], time 14 day): 99.8 IU/L
Na ([…], time 14 day): 137 meq/L
PL ([…], time 14 day): 151.2 mg/dL
RALB ([…], time 14 day): 4 g/dL
TBIL ([…], time 14 day): 0.022 mg/dL
TC ([…], time 14 day): 74.2 mg/dL
TG ([…], time 14 day): 190.4 mg/dL
TP ([…], time 14 day): 6 g/dL
gamma-GTP ([…], time 14 day): 0 IU/L
A/G ([…], time 28 day): 1.9
ALP ([…], time 28 day): 871.8 IU/L
ALT ([…], time 28 day): 31.8 IU/L
AST ([…], time 28 day): 63.4 IU/L
BUN ([…], time 28 day): 18.2 mg/dL
CRE ([…], time 28 day): 0.5 mg/dL
Ca ([…], time 28 day): 11.2 mg/dL
Cl ([…], time 28 day): 104.6 meq/L
DBIL ([…], time 28 day): 0.012 mg/dL
GLC ([…], time 28 day): 180.8 mg/dL
IP ([…], time 28 day): 6.6 mg/dL
K ([…], time 28 day): 4.3 meq/L
LDH ([…], time 28 day): 117.2 IU/L
Na ([…], time 28 day): 141 meq/L
PL ([…], time 28 day): 133.4 mg/dL
RALB ([…], time 28 day): 4.1 g/dL
TBIL ([…], time 28 day): 0.016 mg/dL
TC ([…], time 28 day): 67.6 mg/dL
TG ([…], time 28 day): 155.6 mg/dL
TP ([…], time 28 day): 6.2 g/dL
gamma-GTP ([…], time 28 day): 0.4 IU/L
